Numbered stars: 1 amine (or outer) side, 2 acyl side, 3 side chain; on linkers, the order of the positions; unused ones are H or OH. Square brackets hold non-standard residues; d marks the D form. Side chains are listed from the residue outwards. Peptide text beside a SMILES is read from it. * marks the point of attachment. C20 diacid = O=C(O)CCCCCCCCCCCCCCCCCCC(=O)*; C18 diacid = O=C(O)CCCCCCCCCCCCCCCCC(=O)*; αMePhe(2-F) = C[C@](N)(Cc1ccccc1F)C(=O)O; γGlu = O=C(O)[C@H](CCC(=O)[*:2])N[*:1]; αMeF = C[C@](N)(Cc1ccccc1)C(=O)O; αMeL = CC(C)C[C@](C)(N)C(=O)O; Dab = NCC[C@H](N)C(=O)O; Dap = NC[C@H](N)C(=O)O; AEEA = NCCOCCOCC(=O)O; Aib = CC(C)(N)C(=O)O
Key:
[1] = molecular target: T1, human Gcg receptor (Homo sapiens, UniProt P47871); experiment: [125I]-Glucagon binding (SPA), human Gcg receptor; conditions: read-out: hGLcgR Ki, nM (SEM, n)
T1 construct: expressed in transfected cells; crude membranes
T1 sequence (P47871 26-477): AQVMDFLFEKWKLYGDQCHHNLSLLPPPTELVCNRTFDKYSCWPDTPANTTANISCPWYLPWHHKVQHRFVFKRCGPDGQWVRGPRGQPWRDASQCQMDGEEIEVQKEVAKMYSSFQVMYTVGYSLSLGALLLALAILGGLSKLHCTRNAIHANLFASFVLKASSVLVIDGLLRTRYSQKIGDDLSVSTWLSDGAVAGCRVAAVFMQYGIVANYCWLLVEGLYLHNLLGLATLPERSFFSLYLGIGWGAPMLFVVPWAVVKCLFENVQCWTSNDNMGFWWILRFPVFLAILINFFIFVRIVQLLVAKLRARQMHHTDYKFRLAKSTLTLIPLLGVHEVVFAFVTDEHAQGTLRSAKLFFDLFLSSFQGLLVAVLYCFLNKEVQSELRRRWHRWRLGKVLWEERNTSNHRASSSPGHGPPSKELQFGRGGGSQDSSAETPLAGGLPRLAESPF
In short: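 Cell pellets were lysed in hypotonic Tris buffer, pH 7.5, homogenized, and spun at low then high speed to give crude membranes. Ki was derived from the fitted IC50.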

[2] = molecular target: T2, human GIP receptor (Homo sapiens, UniProt P48546); experiment: [125I]-GIP binding (SPA), human GIP receptor; conditions: read-out: hGIPR Ki, nM (SEM, n)
T2 construct: expressed in transfected cells; crude membranes
T2 sequence (P48546 22-466): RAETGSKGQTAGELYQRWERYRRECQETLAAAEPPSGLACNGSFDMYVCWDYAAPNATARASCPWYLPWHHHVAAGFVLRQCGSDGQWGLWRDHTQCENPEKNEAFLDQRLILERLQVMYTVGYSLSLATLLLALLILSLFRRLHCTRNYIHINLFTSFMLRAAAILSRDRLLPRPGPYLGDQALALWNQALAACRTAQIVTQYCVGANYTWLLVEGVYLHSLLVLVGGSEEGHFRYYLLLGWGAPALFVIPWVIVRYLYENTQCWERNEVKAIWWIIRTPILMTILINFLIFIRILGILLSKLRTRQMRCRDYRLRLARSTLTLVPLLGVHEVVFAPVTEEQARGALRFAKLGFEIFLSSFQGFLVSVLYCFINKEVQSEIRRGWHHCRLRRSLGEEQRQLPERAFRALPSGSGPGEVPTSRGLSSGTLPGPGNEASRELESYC

[3] = molecular target: human GLP-1 receptor (GLP-1R) (Homo sapiens, UniProt P43220); experiment: cAMP pharmacological functional assay in presence of casein, hGLP-1R; format: cell-based; conditions: HEK293 cells expressing hGLP-1R, 0.1% Casein, geometric mean; read-out: hGLP1R cAMP Rel EC50 nM (SEM, n)
Sequence of human GLP-1 receptor (GLP-1R) (P43220 24-463): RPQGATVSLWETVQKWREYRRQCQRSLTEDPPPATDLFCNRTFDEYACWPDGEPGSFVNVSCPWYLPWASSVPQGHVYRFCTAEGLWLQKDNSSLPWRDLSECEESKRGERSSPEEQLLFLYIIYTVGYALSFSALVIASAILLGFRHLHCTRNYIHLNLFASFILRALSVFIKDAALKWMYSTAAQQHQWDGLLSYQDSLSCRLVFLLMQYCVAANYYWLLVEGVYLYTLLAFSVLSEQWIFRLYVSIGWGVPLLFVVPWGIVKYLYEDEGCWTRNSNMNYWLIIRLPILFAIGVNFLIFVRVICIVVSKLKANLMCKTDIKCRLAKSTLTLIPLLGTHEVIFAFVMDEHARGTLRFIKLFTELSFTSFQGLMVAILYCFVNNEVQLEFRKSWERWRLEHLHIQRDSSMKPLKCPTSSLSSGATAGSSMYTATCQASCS

[4] = molecular target: T3, gastric inhibitory peptide receptor (GIPR) (Homo sapiens, UniProt P48546); experiment: cAMP pharmacological functional assay in presence of casein, hGIPR; format: cell-based; conditions: HEK293 cells expressing hGIPR, 0.1% Casein, geometric mean; read-out: hGIPR cAMP Rel EC50 nM (SEM, n)
T3 sequence (P48546 22-466): T2 sequence (P48546 22-466)

[5] = molecular target: human GLP-1R (Homo sapiens, UniProt P43220); experiment: [125I]-GLP-1 binding (SPA), human GLP-1 receptor; design: expressed in transfected cells; crude membranes; conditions: read-out: hGLP1R Ki, (nM) (SEM, n)
Sequence of human GLP-1R (P43220 24-463): as above
In short: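 Crude-membrane binding assay; one membrane prep included 1 mM MgCl2 and 25 units/ml DNAse I during lysis. Assay buffer at pH 7.4 contains 0.1% (w/v) bacitracin and 0.003% (w/v) TWEEN-20. Ki is reported as geometric mean.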

| SMILES | Ki [1] [nM] | Ki [2] [nM] | EC50 [3] [nM] | EC50 [4] [nM] | Ki [5] [nM] |
| --- | --- | --- | --- | --- | --- |
| CC[C@H](C)[C@H](NC(=O)[C@H](CC(C)C)NC(=O)[C@H](Cc1ccc(O)cc1)NC(=O)[C@@H](CCC(=O)O)NC(=O)[C@@H](NC(=O)[C@H](Cc1ccccc1)NC(=O)[C@H](CCC(=O)O)NC(=O)C(C)(C)NC(=O)[C@H](CCC(N)=O)NC(=O)[C@H](C)NC(=O)[C@H](CCCCNC(=O)COCCOCCNC(=O)COCCOCCNC(=O)CC[C@H](NC(=O)CCCCCCCCCCCCCCCCC(=O)O)C(=O)O)NC(=O)[C@H](CCN)NC(=O)[C@H](CC(=O)O)NC(=O)[C@H](CC(C)C)NC(=O)[C@](C)(CC(C)C)NC(=O)[C@@H](NC(=O)[C@H](CO)NC(=O)[C@H](Cc1ccc(O)cc1)NC(=O)[C@H](CC(=O)O)NC(=O)[C@H](CO)NC(=O)[C@@H](NC(=O)[C@](C)(Cc1ccccc1F)NC(=O)[C@@H](NC(=O)CNC(=O)[C@H](CCC(=O)O)NC(=O)C(C)(C)NC(=O)[C@@H](N)Cc1ccc(O)cc1)[C@@H](C)O)[C@@H](C)O)[C@@H](C)CC)[C@@H](C)CC)C(=O)N[C@@H](CCC(=O)O)C(=O)NCC(=O)NCC(=O)N1CCC[C@H]1C(=O)N[C@@H](CO)C(=O)N[C@@H](CO)C(=O)NCC(=O)N[C@@H](C)C(=O)N1CCC[C@H]1C(=O)N1CCC[C@H]1C(=O)N1CCC[C@H]1C(=O)N[C@@H](CO)C(N)=O [Example 209] (H-Y[Aib]EGT[αMePhe(2-F)]TSDYSI[αMeL]LD[Dab]K([AEEA-AEEA-γGlu-C18 diacid])AQ[Aib]EFI[dE]YLIEGGPSSGAPPPS-NH2) | > 1060 | 0.0664 | 0.0374 | 0.0308 | 1.43 |
| CC[C@H](C)[C@H](NC(=O)[C@H](CC(C)C)NC(=O)[C@H](Cc1ccc(O)cc1)NC(=O)[C@@H](CCC(=O)O)NC(=O)[C@@H](NC(=O)[C@H](Cc1ccccc1)NC(=O)[C@H](CCC(=O)O)NC(=O)C(C)(C)NC(=O)[C@H](CCC(N)=O)NC(=O)[C@H](C)NC(=O)[C@H](CCCCNC(=O)COCCOCCNC(=O)COCCOCCNC(=O)CC[C@H](NC(=O)CCCCCCCCCCCCCCCCC(=O)O)C(=O)O)NC(=O)[C@H](CN)NC(=O)[C@H](CC(=O)O)NC(=O)[C@H](CC(C)C)NC(=O)[C@](C)(CC(C)C)NC(=O)[C@@H](NC(=O)[C@H](CO)NC(=O)[C@H](Cc1ccc(O)cc1)NC(=O)[C@H](CC(=O)O)NC(=O)[C@H](CO)NC(=O)[C@@H](NC(=O)[C@](C)(Cc1ccccc1F)NC(=O)[C@@H](NC(=O)CNC(=O)[C@H](CCC(=O)O)NC(=O)C(C)(C)NC(=O)[C@@H](N)Cc1ccc(O)cc1)[C@@H](C)O)[C@@H](C)O)[C@@H](C)CC)[C@@H](C)CC)C(=O)N[C@@H](CCC(=O)O)C(=O)NCC(=O)NCC(=O)N1CCC[C@H]1C(=O)N[C@@H](CO)C(=O)N[C@@H](CO)C(=O)NCC(=O)N[C@@H](C)C(=O)N1CCC[C@H]1C(=O)N1CCC[C@H]1C(=O)N1CCC[C@H]1C(=O)N[C@@H](CO)C(N)=O [Example 210] (H-Y[Aib]EGT[αMePhe(2-F)]TSDYSI[αMeL]LD[Dap]K([AEEA-AEEA-γGlu-C18 diacid])AQ[Aib]EFI[dE]YLIEGGPSSGAPPPS-NH2) | > 1010 | 0.0399 | 0.0432 | 0.0383 | 1.58 |
| CC[C@H](C)[C@H](NC(=O)[C@H](CC(C)C)NC(=O)[C@H](Cc1ccc(O)cc1)NC(=O)[C@@H](CCC(=O)O)NC(=O)[C@@H](NC(=O)[C@H](Cc1ccccc1)NC(=O)[C@H](CCC(=O)O)NC(=O)C(C)(C)NC(=O)[C@H](CCC(N)=O)NC(=O)[C@H](C)NC(=O)[C@H](CCCCNC(=O)COCCOCCNC(=O)COCCOCCNC(=O)CC[C@H](NC(=O)CCCCCCCCCCCCCCCCCCC(=O)O)C(=O)O)NC(=O)[C@H](CCCCN)NC(=O)[C@H](CC(=O)O)NC(=O)[C@H](CC(C)C)NC(=O)[C@](C)(CC(C)C)NC(=O)[C@@H](NC(=O)[C@H](CO)NC(=O)[C@H](Cc1ccc(O)cc1)NC(=O)[C@H](CC(=O)O)NC(=O)[C@H](CO)NC(=O)[C@@H](NC(=O)[C@](C)(Cc1ccccc1F)NC(=O)[C@@H](NC(=O)CNC(=O)[C@H](CCC(=O)O)NC(=O)C(C)(C)NC(=O)[C@@H](N)Cc1ccc(O)cc1)[C@@H](C)O)[C@@H](C)O)[C@@H](C)CC)[C@@H](C)CC)C(=O)N[C@@H](CCC(=O)O)C(=O)NCC(=O)NCC(=O)N1CCC[C@H]1C(=O)N[C@@H](CO)C(=O)N[C@@H](CO)C(=O)NCC(=O)N[C@@H](C)C(=O)N1CCC[C@H]1C(=O)N1CCC[C@H]1C(=O)N1CCC[C@H]1C(=O)N[C@@H](CO)C(N)=O [Example 212] (H-Y[Aib]EGT[αMePhe(2-F)]TSDYSI[αMeL]LDKK([AEEA-AEEA-γGlu-C20 diacid])AQ[Aib]EFI[dE]YLIEGGPSSGAPPPS-NH2) | 205 | 0.0978 | 0.0572 | 0.0501 | 2.76 |
| CC[C@H](C)[C@H](NC(=O)[C@H](CC(C)C)NC(=O)[C@H](Cc1ccc(O)cc1)NC(=O)[C@@H](CCC(=O)O)NC(=O)[C@@H](NC(=O)[C@H](Cc1ccccc1)NC(=O)[C@H](CCC(=O)O)NC(=O)C(C)(C)NC(=O)[C@H](CCC(N)=O)NC(=O)[C@H](C)NC(=O)[C@H](CCCCNC(=O)COCCOCCNC(=O)COCCOCCNC(=O)CC[C@H](NC(=O)CCCCCCCCCCCCCCCCC(=O)O)C(=O)O)NC(=O)[C@H](CCC(=O)O)NC(=O)[C@H](CC(=O)O)NC(=O)[C@H](CC(C)C)NC(=O)[C@](C)(CC(C)C)NC(=O)[C@@H](NC(=O)[C@H](CO)NC(=O)[C@H](Cc1ccc(O)cc1)NC(=O)[C@H](CC(=O)O)NC(=O)[C@H](CO)NC(=O)[C@@H](NC(=O)[C@](C)(Cc1ccccc1)NC(=O)[C@@H](NC(=O)CNC(=O)[C@H](CCC(=O)O)NC(=O)C(C)(C)NC(=O)[C@@H](N)Cc1ccc(O)cc1)[C@@H](C)O)[C@@H](C)O)[C@@H](C)CC)[C@@H](C)CC)C(=O)N[C@@H](CCC(=O)O)C(=O)NCC(=O)NCC(=O)N1CCC[C@H]1C(=O)N[C@@H](CO)C(=O)N[C@@H](CO)C(=O)NCC(=O)N[C@@H](C)C(=O)N1CCC[C@H]1C(=O)N1CCC[C@H]1C(=O)N1CCC[C@H]1C(=O)N[C@@H](CO)C(N)=O [Example 213] (H-Y[Aib]EGT[αMeF]TSDYSI[αMeL]LDEK([AEEA-AEEA-γGlu-C18 diacid])AQ[Aib]EFI[dE]YLIEGGPSSGAPPPS-NH2) | 544 | 0.365 | 0.071 | 0.0523 | 2.75 |
| CC[C@H](C)[C@H](NC(=O)[C@H](CC(C)C)NC(=O)[C@H](Cc1ccc(O)cc1)NC(=O)[C@@H](CCC(=O)O)NC(=O)[C@@H](NC(=O)[C@H](Cc1ccccc1)NC(=O)[C@H](CCC(=O)O)NC(=O)C(C)(C)NC(=O)[C@H](CCC(N)=O)NC(=O)[C@H](C)NC(=O)[C@H](CCCCNC(=O)COCCOCCNC(=O)COCCOCCNC(=O)CCCCCCCCCCCCCCCCC(=O)O)NC(=O)[C@H](CCC(=O)O)NC(=O)[C@H](CC(=O)O)NC(=O)[C@H](CC(C)C)NC(=O)[C@](C)(CC(C)C)NC(=O)[C@@H](NC(=O)[C@H](CO)NC(=O)[C@H](Cc1ccc(O)cc1)NC(=O)[C@H](CC(=O)O)NC(=O)[C@H](CO)NC(=O)[C@@H](NC(=O)[C@](C)(Cc1ccccc1F)NC(=O)[C@@H](NC(=O)CNC(=O)[C@H](CCC(=O)O)NC(=O)C(C)(C)NC(=O)[C@@H](N)Cc1ccc(O)cc1)[C@@H](C)O)[C@@H](C)O)[C@@H](C)CC)[C@@H](C)CC)C(=O)N[C@@H](CCC(=O)O)C(=O)NCC(=O)NCC(=O)N1CCC[C@H]1C(=O)N[C@@H](CO)C(=O)N[C@@H](CO)C(=O)NCC(=O)N[C@@H](C)C(=O)N1CCC[C@H]1C(=O)N1CCC[C@H]1C(=O)N1CCC[C@H]1C(=O)N[C@@H](CO)C(N)=O [Example 214] (H-Y[Aib]EGT[αMePhe(2-F)]TSDYSI[αMeL]LDEK([AEEA-AEEA-C18 diacid])AQ[Aib]EFI[dE]YLIEGGPSSGAPPPS-NH2) | 126 | 0.0304 | 0.0221 | 0.0251 | 1.99 |

From patent US12252524B2, “GIP/GLP1 co-agonist compounds” (Eli Lilly and Company, priority 2018, dated 2025)
